# According to publication PMC4954948, “Functional and modular analyses of diverse endoglucanases from Ruminococcus albus 8, a specialist plant cell wall degrading bacterium” (Scientific Reports, 2016):
# Columns and labels:
# Experiment in all cases: isothermal titration calorimetry
# Assay type in all cases: binding
# Ra2535 TM1 = molecular target: T1, Ra2535 TM1 (Hominimerdicola alba, UniProt E9SAY7); conditions: 25 °C, 50 mM sodium phosphate, 150 mM NaCl, pH 6.5; single site model; read-out: affinity constant (converted)
# T1 construct: gene CUS_8100
# T1 sequence (E9SAY7 entry or part of it): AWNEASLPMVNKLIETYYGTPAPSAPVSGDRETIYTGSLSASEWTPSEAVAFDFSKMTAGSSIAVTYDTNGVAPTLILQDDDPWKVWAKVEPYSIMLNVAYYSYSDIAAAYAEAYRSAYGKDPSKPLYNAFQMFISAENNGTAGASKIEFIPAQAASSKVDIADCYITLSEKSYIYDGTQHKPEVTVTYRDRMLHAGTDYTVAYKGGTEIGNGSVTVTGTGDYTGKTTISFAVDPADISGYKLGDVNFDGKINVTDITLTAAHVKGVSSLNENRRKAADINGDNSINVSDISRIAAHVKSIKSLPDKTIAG
# Excerpt: isothermal titration calorimetry on Ra2535 TM1 | The affinity constants of Ra2535 TM1 and TM2 for cellopentaose were similar
# Ra1831 TM1 = molecular target: T2, Ra1831 TM1 (Hominimerdicola alba, UniProt E9SGH0); conditions: 25 °C, 50 mM sodium phosphate, 150 mM NaCl, pH 6.5; weak, parameters not deducible
# T2 construct: gene CUS_6389; truncation: C-terminal half of Ra1831 with region of unknown function (CBM65-like) plus CBM37, GH5 domain removed
# T2 sequence (E9SGH0 entry or part of it): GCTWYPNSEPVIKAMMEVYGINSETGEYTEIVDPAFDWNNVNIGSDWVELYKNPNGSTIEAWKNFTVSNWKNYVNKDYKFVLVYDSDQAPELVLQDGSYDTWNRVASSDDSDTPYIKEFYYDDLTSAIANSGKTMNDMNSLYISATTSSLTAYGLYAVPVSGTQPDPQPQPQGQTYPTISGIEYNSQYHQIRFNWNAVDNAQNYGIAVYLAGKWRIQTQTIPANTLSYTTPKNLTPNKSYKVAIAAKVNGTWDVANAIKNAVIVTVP
# Ra2535 TM2 = molecular target: T3, Ra2535 TM2 (Hominimerdicola alba, UniProt E9SAY7); conditions: 25 °C, 50 mM sodium phosphate, 150 mM NaCl, pH 6.5; single site model; read-out: affinity constant (converted)
# T3 construct: gene CUS_8100
# T3 sequence (E9SAY7 entry or part of it): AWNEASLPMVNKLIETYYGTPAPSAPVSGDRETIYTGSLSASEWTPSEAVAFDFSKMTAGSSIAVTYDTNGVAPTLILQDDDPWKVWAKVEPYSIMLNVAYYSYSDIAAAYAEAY
# Excerpt: isothermal titration calorimetry on Ra2535 TM2 | The affinity constants of Ra2535 TM1 and TM2 for cellopentaose were similar
structure (smiles),measurement,setting,value
OC[C@H]1O[C@@H](O[C@H]2[C@H](O)[C@@H](O)[C@H](O[C@H]3[C@H](O)[C@@H](O)[C@H](O[C@H]4[C@H](O)[C@@H](O)[C@H](O[C@H]5[C@H](O)[C@@H](O)C(O)O[C@@H]5CO)O[C@@H]4CO)O[C@@H]3CO)O[C@@H]2CO)[C@H](O)[C@@H](O)[C@@H]1O (stereo partly drawn) [cellopentaose],Kd,Ra2535 TM1,5.95 µM
same,isothermal titration calorimetry,Ra1831 TM1,The representative ITC data for Ra1831 TM1 was not very different from that of TM2
same,Kd,Ra2535 TM2,5.95 µM
